According to patent publication US20210290680A1, “METHODS AND COMPOSITIONS FOR MODULATING CELLULAR AGING” (Dorian Therapeutics, Inc., priority 2019, published 2021):

What was measured:
Format in all cases: cell-based, human
NALM cells = test: CAR-T in vitro cytotoxicity assay, CD19.CAR T cells; details: 1:5 E:T, 72 hours, n=3
Experimental: (§1) Primary T cells were activated as described (Example 3), transduced with a lentivirus encoding for either a CD19.CAR or a GD2.CAR co-expressing shUSP16 #1, shUSP16 #2 or a scrambled shRNA (Control). Cells were cultured in IL-2 and sorted between days 6-13 for EGFRt. At day 16 cytotoxicity assays were performed. Briefly, cells were counted and 100,000 T cells (adjusted for EGFR expression) were plated at 1:5 Effector:Target (E:T) ratio. At 72 hours, the mixture of tumor cells and T cells were collected, stained for CD3-PE, CD8-BV510, CD19- or GD2-APC, EGFR-AF488 and Sytox and counted by flow cytometry (MACSQuant, Miltenyi Biotec) (FIGS. 30A and 30B). Counting beads (CountBright Absolute Counting beads, Invitrogen) were added before acquisition and absolute number was calculated as following (number of cell events/number of bead events)×(assigned bead count of the lot (beads/50 ul)/volume of sample (ul))=concentration of sample as cells/ul). NALM cells were used as target cells for CD19.CAR T cells and CHLA-55 cells were used as target for GD2.CAR T cells. Three different primary T cell cultures were tested for CD19 and GD2 CAR.

TCF7 = test: qPCR of WNT pathway regulator TCF7; details: for TCF7 expression, fold change vs Control: CD19.CAR; for TCF7 expression, fold change vs Control / TCF7 expression vs Control: day 15, n=4; for TCF7 expression vs Control: GD2.CAR; for TCF7 expression, fold increase over Control: primary T cells, day 15
Description: Primary T cells were activated as described (Example 3), transduced with a lentivirus encoding either a shUSP16 #1, shUSP16 #2 or a non-targeting shRNA (shCtrl) and cells were selected with puromycin at day 6. At day 15 cell were collected and analyzed by qPCR for the expression of LEF1 (FIG. 16A) and TCF7 (FIG. 16B), downstream regulators of the WNT pathway. At day 20, cells were stained for CD4-PE, CD8-BV510, CD62L-Allophycocyanin and CD45RA-APC-Cy7 (Biolegend). Stem cell memory T cells (Tscm) were identified as Sytox^− GFP^+CD45RA^+CD62L^+, central memory T cells (Tcm) as Sytox^−GFP^+CD45RA^−CD62L^+, effector memory T cells (Tem) as Sytox^−GFP^+CD45RA^−CD62L^−, and terminal effector T cell (Teff) as Sytox^−GFP^+CD45RA^+CD62L^− (FIG. 17A). Cells were gated on the CD8 population. The specific increase of Tscm was shown as phenotype ratio (FIG. 17B).
(§2) Primary T cells were activated as described (Example 3), transduced with a lentivirus encoding for either a CD19.CAR or a GD2.CAR co-expressing shUSP16 #1, shUSP16 #2 or a scrambled shRNA (Control). Fifteen days post-activation, T cells were collected and qPCR performed. TaqMan probes detecting CDKN1A, CDKN2A (FIGS. 26A and 26B) (fold change GD2.CAR (n=4): CDKN1A Control vs shUSP #1: 0.4360, p<0.0001, and Control vs shUSP16 #2: 3.036, p=0.004 respectively. Fold change CD19.CAR (n=4): CDKN2a, CDKN1A Control vs shUSP #1: 0.6906, p=0.0026; 0.7228, p=0.0297 and Control vs shUSP16 #2: 0.8385, p=0.2325; 0.7017, p=0.0021), TCF7, LEF1, and Axin-2 (FIGS. 27A and B) were analyzed in GD2.CAR and CD19.CAR-expressing cells, respectively. ACTB was used as internal control. (GD2.CAR (n=4) TCF7, LEF1 and Axin-2: Control vs shUSP #1: 1.914 p=0.0512; 1.795 p=0.0323; 3.269 p=0.15 and Control vs shUSP16 #2: 1.284 p=0.0494; 1.718 p=0.0586; 2.035p=0.235, respectively. Fold change CD19.CAR (n=4): TCF7, LEF1 and Axin-2: Control vs shUSP #1: 1.528, p=0.0277; 1.82, p=0.0449; 1.998, p=0.031 and Control vs shUSP16 #2: 1.18, p=0.2002; 1.579, p=0.0632; 1.261, p=0.2382). USP16 downregulation in CAR-T cells results in a decreased expression of senescence markers and an increase in the expression of genes associated with the activation/increased signaling of the WNT pathway, indicating its importance in delaying cellular senescence and increasing self-renewal.

CHLA-55 cells = test: CAR-T in vitro cytotoxicity assay, GD2.CAR T cells; details: 1:5 E:T, 72 hours, n=3
Experimental: as §1

CDKN2A = test: qPCR of senescence marker CDKN2A; details: CD19.CAR, day 15, n=4
Description: as §2, with “USP16 downregulation in CAR-T cells results in a decreased expression of senescence markers and an increase in the expression of genes associated with the activation/increased signaling of the WNT pathway, indicating its importance in delaying cellular senescence and increasing self-renewal.” left out

CDKN1A = test: qPCR of senescence marker CDKN1A; details: for CDKN1A expression, fold change vs Control: day 15, n=4; for decrease of senescence marker CDKN1A (Ctrl vs shRNA): primary T cells, day 15
Description: A new set of shRNAs were cloned into the pSIH backbone, where the shRNA expression is driven by the H1 promoter. The vector was also engineered to co-express GFP and Puromycin resistance through a T2A sequence. The new shRNA sequences were: shUSP16 #1 5′-[…]-3′ (SEQ ID NO: 8) and shUSP16 #2 5′-[…]-3′ (SEQ ID NO: 9). Primary T cells were activated as described (Example 3), transduced with a lentivirus encoding either a shUSP16 #1, shUSP16 #2 or a scrambled shRNA (Control) and cells were selected with puromycin at day 6. Between 1 and 1.25×10^6 cells were plated post-puromycin selection with a purity higher than 90% and counted every 2-4 days by Trypan Blue exclusion using Vi-CELL XR cell counter (Beckman Coulter). qPCR was performed to verify downregulation of USP16 expression (FIG. 14A) and the expression of the senescent marker CDKN1A (FIG. 14B) at day 15. Proliferation was measured as fold increased compared to shControl at day 15 post-activation. The experiment was repeated using primary T cells obtained from buffy coats of 3 different healthy donors.
as §2

Row | Substance | T cell number (NALM cells) | residual tumor cells (NALM) (NALM cells) | TCF7 expression, fold change vs Control (TCF7) | TCF7 expression vs Control (TCF7) | TCF7 expression, fold increase over Control (TCF7) | CHLA-55 residual cells (CHLA-55 cells) | T cell number (CHLA-55 cells) | CDKN2a expression, fold change vs Control (CDKN2A) | CDKN1A expression, fold change vs Control (CDKN1A; CD19.CAR) | CDKN1A expression, fold change vs Control (CDKN1A; GD2.CAR) | decrease of senescence marker CDKN1A (Ctrl vs shRNA) (CDKN1A) [%]
1 | shUSP16 #1: shRNA targeting USP16, 5′-GACTGTAAGACTGACAATAAA-3′ (SEQ ID NO: 8), pSIH backbone or co-expressed in CAR plasmid | 46674 | 29688 | 1.528 | 1.914 | 2.804 | 159531 | 79566 | 0.6906 | 0.7228 | 0.4360 | 23
2 | shUSP16 #2: shRNA targeting USP16, 5′-TATATCAGTTCACCCGTAAT-3′ (SEQ ID NO: 9), pSIH backbone or co-expressed in CAR plasmid | 58732 | 28462 | 1.18 | 1.284 | 1.428 | 129186 | 194025 | 0.8385 | 0.7017 | 3.036 | 37
